Reference: patent US7846946B2, “Heteroatom-linked substituted piperidines and derivatives thereof useful as histamine H3 antagonists” (Schering Plough Corporation, priority 2005, dated 2010)

What was measured:
[1] = target: T1, H3 receptors (guinea pig brain) (Cavia porcellus, UniProt Q9JI35); assay: H3-receptor binding assay, guinea pig receptor; settings: radioligand [3H]R-α-methyl histamine or [3H]Nα-methyl histamine
T1 construct: The brain tissue was homogenized with a solution of 50 mM Tris, pH 7.5; from tissue; host or cells: guinea pig brain membranes
T1 sequence (Q9JI35 whole entry): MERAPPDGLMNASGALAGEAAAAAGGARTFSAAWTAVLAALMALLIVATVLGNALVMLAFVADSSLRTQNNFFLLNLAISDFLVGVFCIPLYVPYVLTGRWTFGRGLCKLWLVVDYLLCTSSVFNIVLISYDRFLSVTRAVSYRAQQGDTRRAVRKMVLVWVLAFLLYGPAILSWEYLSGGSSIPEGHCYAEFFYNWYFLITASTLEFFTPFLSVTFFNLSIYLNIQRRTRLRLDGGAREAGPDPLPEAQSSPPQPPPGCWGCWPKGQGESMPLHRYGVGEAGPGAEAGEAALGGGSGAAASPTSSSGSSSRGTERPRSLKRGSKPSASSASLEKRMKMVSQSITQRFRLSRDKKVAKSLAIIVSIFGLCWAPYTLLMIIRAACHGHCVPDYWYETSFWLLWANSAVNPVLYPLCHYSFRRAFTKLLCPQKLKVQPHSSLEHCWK
Procedure: (§1) General Procedure for H3-Receptor Binding Assay
(§2) The source of the H3 receptors in this experiment was guinea pig brain. Alternatively, the source of H3 receptors was recombinant human receptor, expressed in HEK-293 (human embryonic kidney) cells.
The animals weighed 400-600 g. The brain tissue was homogenized with a solution of 50 mM Tris, pH 7.5. The final concentration of tissue in the homogenization buffer was 10% w/v. The homogenates were centrifuged at 1,000×g for 10 min. in order to remove clumps of tissue and debris. The resulting supernatants were then centrifuged at 50,000×g for 20 min. in order to sediment the membranes, which were next washed three times in homogenization buffer (50,000×g for 20 min. each). The membranes were frozen and stored at −70° C. until needed.
All compounds to be tested were dissolved in DMSO and then diluted into the binding buffer (50 mM Tris, pH 7.5) such that the final concentration was 2 μg/ml with 0.1% DMSO. Membranes were then added (400 μg of protein, 5 μg in the case of recombinant human receptor) to the reaction tubes. […] Bound ligand was separated from unbound ligand by filtration, and the amount of radioactive ligand bound to the membranes was quantitated by liquid scintillation spectrometry. […]

[2] = target: T2, recombinant human H3 receptor, expressed in HEK-293 cells (Homo sapiens, UniProt Q9Y5N1); assay: H3-receptor binding assay, recombinant human receptor; settings: recombinant human receptor assay (HEK-293)
T2 construct: expressed in transfected cells; host or cells: HEK-293 (human embryonic kidney) cells
T2 sequence (Q9Y5N1 whole entry): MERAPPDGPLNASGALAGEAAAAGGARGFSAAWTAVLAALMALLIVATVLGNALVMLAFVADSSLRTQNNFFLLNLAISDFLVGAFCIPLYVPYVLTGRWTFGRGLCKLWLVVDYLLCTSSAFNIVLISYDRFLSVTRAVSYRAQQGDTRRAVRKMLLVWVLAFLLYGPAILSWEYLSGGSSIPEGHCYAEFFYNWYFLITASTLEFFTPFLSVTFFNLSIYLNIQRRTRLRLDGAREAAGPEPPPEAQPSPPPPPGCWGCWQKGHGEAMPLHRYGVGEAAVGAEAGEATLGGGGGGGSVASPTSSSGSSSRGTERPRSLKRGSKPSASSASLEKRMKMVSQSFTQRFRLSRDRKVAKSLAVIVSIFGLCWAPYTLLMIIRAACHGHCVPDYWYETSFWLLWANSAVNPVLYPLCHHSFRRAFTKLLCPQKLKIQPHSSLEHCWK
Procedure: as §1, §2
All compounds to be tested were dissolved in DMSO and then diluted into the binding buffer (50 mM Tris, pH 7.5) such that the final concentration was 2 μg/ml with 0.1% DMSO. Membranes were then added (400 μg of protein, 5 μg in the case of recombinant human receptor) to the reaction tubes. The reaction was started by the addition of 3 nM [^3H]R-α-methyl histamine (8.8 Ci/mmol) or 3 nM [^3H]Na^α-methyl histamine (80 Ci/mmol) and continued under incubation at 30° C. for 30 min. Bound ligand was separated from unbound ligand by filtration, and the amount of radioactive ligand bound to the membranes was quantitated by liquid scintillation spectrometry. All incubations were performed in duplicate and the standard error was always less than 10%. Compounds that inhibited more than 70% of the specific binding of radioactive ligand to the receptor were serially diluted to determine a Ki (nM).

| Ki [1] [pM] | Ki [2] [pM] | SMILES |
| --- | --- | --- |
| 200 |  | Cc1cc(C(=O)NCc2cccnc2NC2CCN(C(=O)C3CCN(Cc4ccnc(N)c4)CC3)CC2)no1 [Example 11] |
|  | 700 | Nc1cc(CN2CCC(C(=O)N3CCC(NCc4ccc(F)cc4F)CC3)CC2)ccn1 [Example 256] |
